The results in this text go back to patent US20120263762A1, “STABILISED PARTICLES COMPRISING 5-METHYL-(6S)-TETRAHYDROFOLATE” (BAYER PHARMA AKTIENGESELLSCHAFT, priority 2009, published 2012).

Each structure is given as a SMILES string.

This data set is described as follows: Particle size distribution of particles (laser diffraction, volume distribution). In kind it is physicochemical. Conditions: micronized active ingredient before coating. The source says:
When used herein, the term “d90 particle size” is intended to mean that the particle size distribution is so that at least 90% of the particles have a particle diameter of less than the specified value, calculated from the volume distribution curve under the presumption of spherical particles. In a similar way, the term “d50 particle size” is intended to mean that the particle size distribution is so that at least 50% of the particles have a particle diameter of less than the specified value, calculated from the volume distribution curve under the presumption of spherical particles.
Therefore, it is important to note that whenever the terms “particle size”, “particle size distribution”, “particle diameter”, “d90”, “d50”, etc., are used herein it should be understood that the specific values or ranges used in connection therewith are always meant to be determined from the volume distribution curve under the presumption of spherical particles. The particle size distribution may be determined by various techniques, e.g. laser diffraction, and will be known to the person skilled in the art. […] The particle size distribution of the particles, when incorporated in a wafer, may be determined by dissolving the film forming matrix, separation of the protected particles, and drying the protected particles. […]

In turn, `C[C@]12CCC(=O)C=C1[C@@H]1C[C@@H]1[C@H]1[C@@H]3[C@@H]4C[C@@H]4[C@@]4(CCC(=O)O4)[C@@]3(C)CC[C@@H]12` [drospirenone] returned a d50 of 2.2 μm and a d90 of 4.8 μm.
